Where two headings read alike, the source gives them in different places.

Test [1] addresses T1, human adenosine A2A receptor (Homo sapiens, UniProt P29274). In words: Competition binding, [3H]-ZM 241385, hA2A CHO membranes. Conditions: read-out: Receptor hA2A Ki; [3H]-ZM 241385; single affinity value; mean ± SEM.
For test [2], the target named is T2, human adenosine A1 receptor (Homo sapiens, UniProt P30542).
T2 sequence (P30542 1-326): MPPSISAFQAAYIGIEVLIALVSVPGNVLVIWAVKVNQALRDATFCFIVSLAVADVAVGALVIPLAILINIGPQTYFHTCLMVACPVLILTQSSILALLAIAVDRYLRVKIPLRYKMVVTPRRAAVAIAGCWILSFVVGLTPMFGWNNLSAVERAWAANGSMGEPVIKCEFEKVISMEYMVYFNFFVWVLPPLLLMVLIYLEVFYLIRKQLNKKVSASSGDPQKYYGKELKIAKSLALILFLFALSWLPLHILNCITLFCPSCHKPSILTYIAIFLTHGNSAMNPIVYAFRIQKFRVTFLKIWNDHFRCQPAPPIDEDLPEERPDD
Description: Competition binding, [3H]-DPCPX, hA1 CHO membranes. Conditions: read-out: Receptor hA1 Ki, mean ± SEM.

Test [3] deals with T3, human adenosine A3 receptor (Homo sapiens, UniProt P0DMS8).
T3 construct: expressed in transfected cells; host or cells: CHO cells (membrane preparation)
T3 sequence (P0DMS8 1-318): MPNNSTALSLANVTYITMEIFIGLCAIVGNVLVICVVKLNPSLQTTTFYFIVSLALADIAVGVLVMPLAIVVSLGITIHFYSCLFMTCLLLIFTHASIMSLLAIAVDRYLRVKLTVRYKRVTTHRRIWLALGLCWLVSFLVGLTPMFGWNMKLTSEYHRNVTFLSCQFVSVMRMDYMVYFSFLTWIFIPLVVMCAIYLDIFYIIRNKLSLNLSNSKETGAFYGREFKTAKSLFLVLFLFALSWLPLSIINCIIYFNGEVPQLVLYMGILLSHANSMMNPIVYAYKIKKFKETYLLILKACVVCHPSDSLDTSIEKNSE
In words: Competition binding, [125I]-ABMECA, hA3 CHO membranes. Conditions: mean ± SEM.

Test [4] concerns the target T4, human adenosine A2B receptor (Homo sapiens, UniProt P29275).
T4 sequence (P29275 1-332): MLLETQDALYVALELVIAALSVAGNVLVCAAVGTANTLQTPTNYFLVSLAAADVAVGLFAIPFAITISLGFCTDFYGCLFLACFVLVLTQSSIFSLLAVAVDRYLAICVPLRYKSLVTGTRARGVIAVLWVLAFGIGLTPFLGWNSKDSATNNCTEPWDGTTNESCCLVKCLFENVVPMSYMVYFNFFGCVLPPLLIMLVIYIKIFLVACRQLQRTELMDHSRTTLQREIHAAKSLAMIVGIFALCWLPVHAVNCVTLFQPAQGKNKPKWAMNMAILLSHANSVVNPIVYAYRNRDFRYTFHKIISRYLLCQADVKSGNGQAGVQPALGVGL
In words: cAMP assay, inhibition of NECA-stimulated cAMP levels in hA2B CHO cells. Conditions: read-out: Receptor hA2B IC50; cAMP stimulated by NECA (100 nM); mean ± SEM. Background: Cyclic AMP is a second messenger, typically raised through Gs and lowered through Gi signalling.

Test [5] addresses T1, human adenosine A2A receptor. In words: cAMP assay in hA2A CHO cells, basal or with CGS 21680. Format: cell-based. The conditions noted are these: for IC50: mean ± SEM. The arrangement: expressed in transfected cells; host or cells: CHO cells. As to the method: For the membranes preparation the culture medium was removed, and the cells were washed with a saline phosphate-buffered solution collected with hypotonic buffer (5 mM Tris HCl, 1 mM EDTA, pH 7.4).
CHO cells transfected with the adenosine receptors were washed with a phosphate-buffered saline solution, detached with trypsin and centrifuged for 10 minutes at 200 g. […] The reaction was terminated by addition of cold 6% trichloroacetic acid (TCA). The TCA suspension was centrifuged at 2000 g for 10 minutes at 4° C. and the supernatant was extracted four times with diethyl ether with water. The final aqueous solution was tested for the cAMP levels by a competition protein binding assay with a cAMP-binding protein. The standard samples of cAMP (0-10 pmoli) were added to each test tube containing the incubation buffer (trizma base 0.1 M, aminophylline 8.0 mM, 2 mercaptoethanol 6.0 mM, pH 7.4) and [^3H]-cAMP. The binding protein previously prepared from beef adrenals, was added to the samples previously incubated at 4° C. for 150 minutes, and after the addition of charcoal were centrifuged at 2000 g for 10 min.
(§1) The statistical analysis of the data was performed using ANOVA followed by Dunnett's test. […] KH and KL were obtained by using a two sites binding model and Graph PAD Prism (San Diego, Calif., USA). The values of IC50 obtained in the cAMP assays were calculated by non-linear regression analysis using the equation for a sigmoid concentration-response curve. All data are expressed as the mean±SEM of four independent experiments each performed in duplicate for in vitro assays and n=8-10 mice/group for in vivo assays.

The test system of test [6] is Female CD1 mice. In words: Writhing test (acetic acid-induced abdominal constrictions). It is filed as in vivo. The protocol: Female CD1 mice (22-24 g) were obtained from Charles River (Milano, Italia). The animals were kept under standard environmental temperature conditions (22±2° C.) and under moisture-controlled conditions with 12 hours light/dark cycle and food and water ad libitum. The animals were acclimated to the laboratory settings for at least 1 hour before testing and were used only once throughout the experiments. All the procedures used in the present study were carried out in accordance with the European Communities Council Directives (86/609/EEC) and the National Laws and Policies (D.L.116/92) after authorization from the Italian Ministry for Health (4/2014-B). In addition, the experimental procedures were in agreement with the current guidelines for the care of laboratory animals and the ethical guidelines for investigations of experimental pain in conscious animals (Couto M. Methods Mol Biol 2011; 770:579-599).
The acetic acid-induced writhing response was performed after intraperitoneal injection of 10 ml/Kg of 0.6% acetic acid solution. The response to the abdominal constrictions induced by acetic acid was evaluated after the intraperitoneal injection of 10 ml/kg of a 0.6% solution of acetic acid. The compounds under evaluation were dissolved in DMSO and then diluted in a saline solution. The carrier consists of saline solution and 5% of DMSO. A writhe is indicated by stretching of the abdomen followed by the extension of the hind limbs. The animals (8 mice per group) were placed singly in a glass cylinder and the number of writhing episodes of abdominal contractions was counted in a 30 minutes period. The compounds were administered intraperitoneally 15 minutes before injection of acetic acid solution.
as §1
(Writhing tests count abdominal constrictions after an irritant is injected.)

[7] abbreviates: CGS 21680 (10 nM), read-out: IC50 cAMP, in presence of CGS 21680.
Setting [8] is: CGS 21680 (10 nM), read-out: Emax cAMP, in presence of CGS 21680.
[9] abbreviates: basal cAMP, read-out: IC50 cAMP, in absence of CGS 21680.
[10] abbreviates: efficacy versus basal cAMP production, read-out: Emax cAMP, in absence of CGS 21680.

T1 sequence (P29274 whole entry): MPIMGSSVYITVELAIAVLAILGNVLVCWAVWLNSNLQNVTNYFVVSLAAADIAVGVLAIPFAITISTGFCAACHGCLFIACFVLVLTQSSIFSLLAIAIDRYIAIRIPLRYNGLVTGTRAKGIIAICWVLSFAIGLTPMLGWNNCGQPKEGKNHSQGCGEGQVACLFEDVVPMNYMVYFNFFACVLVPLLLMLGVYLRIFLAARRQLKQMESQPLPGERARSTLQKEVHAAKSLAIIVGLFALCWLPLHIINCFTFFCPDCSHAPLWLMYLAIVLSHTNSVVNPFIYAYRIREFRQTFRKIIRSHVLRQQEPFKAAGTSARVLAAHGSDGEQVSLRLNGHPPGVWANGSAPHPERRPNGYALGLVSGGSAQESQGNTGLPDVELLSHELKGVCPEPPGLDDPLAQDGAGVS

Take `COc1ccc(CNc2nc(N)c3nc(-c4ccco4)sc3n2)cc1` [Compound 2, 2-(furan-2-yl)-N^5-(4-methoxybenzyl)[1,3]thiazolo[5,4-d]pyrimidin-5,7-diamine]: the Ki – broadly, a dissociation constant, usually derived from enzyme kinetics or from competition with a known ligand – came out at 171 ± 16 nM in test [1], 163 ± 12 nM in test [2] and 381 ± 37 nM in test [3]. Further, the IC50 (commonly the midpoint of a concentration-inhibition curve) in test [4] came to 283 ± 27 nM; in test [5] (setting [7]), 123 ± 11 nM; in test [5] (setting [9]), 187 ± 16 nM. The Emax – broadly, the greatest response seen or fitted, relative to the assay's reference – turned out to be 116 ± 11% in test [5] (setting [8]) and 38 ± 4% in test [5] (setting [10]).

Take `Nc1nc(NCc2cccc(O)c2)nc2sc(-c3ccco3)nc12` [Compound 4, 3-(((7-amino-2-(furan-2-yl)[1,3]thiazolo[5,4-d]pyrimidin-5-yl)amino)methyl) phenol]: the Ki in test [1] was 20 ± 2 nM; in test [2], 27 ± 3 nM; in test [3], 55 ± 4 nM. Further, the concentration for half-maximal inhibition (IC50) in test [4] amounted to 24 ± 3 nM; in test [5] (setting [7]), 22 ± 2 nM; in test [5] (setting [9]) it was 27 ± 2 nM. The Emax in test [5] (setting [8]) turned out to be 139 ± 13%; in test [5] (setting [10]), 68 ± 7%.

For `Nc1nc(NCc2ccccn2)nc2sc(-c3ccco3)nc12` [Compound 8, 2-(furan-2-yl)-N^5-(pyridin-2-ylmethyl)[1,3]thiazolo[5,4-d]pyrimidin-5,7-diamine], the results for the Ki in test [1], in test [2] and in test [3] were 0.42 ± 0.04 nM, 28 ± 3 nM and 59 ± 5 nM, respectively. Besides, the IC50 in test [4] came to 95 ± 9 nM; in test [5] (setting [7]), 1.3 ± 0.1 nM; in test [5] (setting [9]) it was 0.68 ± 0.06 nM. The figures for the Emax in test [5] (setting [8]) and in test [5] (setting [10]) were 128 ± 11% and 54 ± 5%, respectively.

As for `Nc1nc(NCc2cccc(F)c2)nc2sc(-c3ccco3)nc12` [Compound 9, N^5-(3-fluorobenzyl)-2-(furan-2-yl)[1,3]thiazolo[5,4-d]pyrimidin-5,7-diamine], the values for the Ki in test [1], in test [2] and in test [3] were 0.82 ± 0.07 nM, 8.51 ± 0.76 nM and 35 ± 4 nM, respectively. Moreover, in test [4], the IC50 was 103 ± 10 nM.

Consider `CCCNc1nc(N)c2nc(-c3ccco3)sc2n1` [Compound 11, 2-(furan-2-yl)-N^5-propyl-[1,3]thiazolo[5,4-d]pyrimidin-5,7-diamine], for which the Ki in test [1] was 17 ± 2 nM; in test [2], 64 ± 10 nM; in test [3], 35 ± 4 nM. For the same compound, the IC50 in test [4] was 323 ± 28 nM.

As for `CCCCNc1nc(N)c2nc(-c3ccco3)sc2n1` [Compound 12, N^5-butyl-2-(furan-2-yl)[1,3]thiazolo[5,4-d]pyrimidin-5,7-diamine], the Ki in test [1] was found to be 8.21 ± 0.78 nM; in test [2] it was 41 ± 5 nM; in test [3], 23 ± 3 nM. In addition, the IC50 in test [4] was found to be 185 ± 17 nM.

As to `Nc1nc(NCc2ccsc2)nc2sc(-c3ccco3)nc12` [Compound 13, 2-(furan-2-yl)-N^5-(thiophen-3-ylmethyl)[1,3]thiazolo[5,4-d]pyrimidin-5,7-diamine], the Ki in test [1] turned out to be 0.25 ± 0.02 nM; in test [2], 8.12 ± 0.71 nM; in test [3] it was 3.14 ± 0.29 nM. The IC50 in test [4] worked out at 8.96 ± 0.82 nM; in test [5] (setting [7]) it was 0.41 ± 0.03 nM; in test [5] (setting [9]), 0.36 ± 0.04 nM. Also, the Emax in test [5] (setting [8]) was 137 ± 13%; in test [5] (setting [10]), 67 ± 6%.

Turning to `Nc1nc(NCc2ccncc2)nc2sc(-c3ccco3)nc12` [Compound 14, 2-(furan-2-yl)-N^5-(pyridin-4-ylmethyl)[1,3]thiazolo[5,4-d]pyrimidin-5,7-diamine], the results for the Ki in test [1], in test [2] and in test [3] were 12 ± 1 nM, 47 ± 4 nM and 827 ± 48 nM, respectively. Also, the IC50 in test [4] amounted to 33 ± 2 nM; in test [5] (setting [7]) it was 18.7 ± 1.6 nM; in test [5] (setting [9]), 15.3 ± 1.2 nM. Moreover, the Emax in test [5] (setting [8]) was determined as 122 ± 10%; in test [5] (setting [10]), 43 ± 4%.

Consider `Nc1nc(NCc2cnccn2)nc2sc(-c3ccco3)nc12` [Compound 15, 2-(furan-2-yl)-N^5-(pyrazin-2-ylmethyl)[1,3]thiazolo[5,4-d]pyrimidin-5,7-diamine], for which the results for the Ki in test [1], in test [2] and in test [3] were 5.14 ± 0.48 nM, 25 ± 4 nM and 157 ± 14 nM, respectively. The IC50 in test [4] worked out at 13.2 ± 1.2 nM; in test [5] (setting [7]), 11.3 ± 0.96 nM; in test [5] (setting [9]), 8.27 ± 0.72 nM. Further, the figures for the Emax in test [5] (setting [8]) and in test [5] (setting [10]) were 117 ± 10% and 48 ± 4%, respectively.

For the compound `Nc1nc(NCCc2ccco2)nc2sc(-c3ccco3)nc12` [Compound 16, 2-(furan-2-yl)-N^5-(2-(furan-2-yl)ethyl)[1,3]thiazolo[5,4-d]pyrimidin-5,7-diamine], the Ki is 2.15 ± 0.19 nM in test [1], 5.24 ± 0.46 nM in test [2] and 23 ± 2 nM in test [3]. The IC50 in test [4] is 14 ± 1 nM; in test [5] (setting [7]) it was 4.26 ± 0.37 nM; in test [5] (setting [9]), 2.93 ± 0.22 nM. The results for the Emax in test [5] (setting [8]) and in test [5] (setting [10]) were 121 ± 11% and 56 ± 6%, respectively.

With `Nc1nc(NCCc2cccnc2)nc2sc(-c3ccco3)nc12` [Compound 17, 2-(furan-2-yl)-N^5-(2-(pyridin-3-yl)ethyl)[1,3]thiazolo[5,4-d]pyrimidin-5,7-diamine], the Ki in test [1] was found to be 0.24 ± 0.01 nM; in test [2] it was 2.61 ± 0.22 nM; in test [3], 174 ± 11 nM. The IC50 is 4.21 ± 0.32 nM in test [4], 0.35 ± 0.04 nM in test [5] (setting [7]) and 0.29 ± 0.03 nM in test [5] (setting [9]). The Emax in test [5] (setting [8]) came out at 141 ± 14%; in test [5] (setting [10]), 71 ± 7%.

Regarding `CN1CC[C@]23c4c5ccc(O)c4O[C@H]2[C@@H](O)C=C[C@H]3[C@H]1C5` [morphine, reference compound], it took a dose of 0.123 ± 0.01 mg/kg to reach the 50% effect level in test [6] (Mus musculus, ip, intraperitoneal, 15 minutes before acetic acid) (ED50). In addition, the “Dose-response curve, Writhing Test” value in test [6] (P<0.001, one-way ANOVA) was “dose-dependent effect”.
